Assay results as given in US9708628B2, “Cationic lipid having improved intracellular kinetics” (NOF CORPORATION, priority 2011, dated 2017).

What was measured:
Factor VII (FVII) [1] = experiment: Knockdown effect of chemically-modified siRNA-encapsulated MEND; assay type: in vivo, ICR mice
Protocol: A MEND (Lipid/siRNA ratio=250) prepared using the compound of Example 13 and by the method shown in Experimental Example 32, and a MEND having the ratio of lipid and siRNA of Lipid/siRNA ratio=2250 were prepared. Furthermore, of Lipid/siRNA ratio=2250, MENDs wherein siRNA was replaced by chemically-modified one (2′-F) were prepared, and the knockdown effect was evaluated by the method shown in Experimental Example 33.

Factor VII (FVII) [2] = experiment: Knockdown effect of siRNA-encapsulated MEND prepared by t-BuOH injecting method; assay type: in vivo, ICR mice; settings: varying doses of siRNA, tail vein
Protocol: A MEND solution prepared by the method shown in [Experimental Example 28] was administered to 4-week-old male ICR mice at 3 mg siRNA/kg from the tail vein, and blood was collected 24 hr later. This blood sample was centrifuged at 1000 g, 10 min, 4° C., and the supernatant was recovered to obtain plasma. The amount of Factor VII (FVII) in the plasma was quantified by BIOPHEN FVII CHROMOGENIC ASSAY (HYPHEN BioMed).
(§1) A lipid solution in t-BuOH with a composition of cationic lipid/cholesterol=70/30, DMG-PEG2000 3% and a total lipid amount of 3000 nmol/400 μL (7.5 mM) was prepared in a 1.7 mL tube. In a separate 1.7 mL tube, an siRNA solution was prepared by mixing an siRNA aqueous solution containing siRNA (160 μg) and 20 mM malate buffer (pH 4.00, 30 mM NaCl) to total 50 μL. With vigorous stirring of the lipid solution, the siRNA solution was gradually added dropwise, and the mixed solution was taken in a 1 mL syringe. Then, 20 mM malate buffer (pH 4.00, 30 mM NaCl, 2 mL) was added into a 5 mL tube, and the mixed solution was gradually injected with vigorous stirring. Thereafter, the mixture was further diluted with PBS (7 mL) and centrifuged at 1000 g, 30° C. for 10 min in Amicon Ultra-15-100K to a volume of less than 1.5 mL. PBS (15 mL) was added, and the solution was centrifuged again to about 500-1000 μL. Finally, the MEND solution was adjusted by diluting with PBS to the object lipid concentration.
MENDs prepared by the method shown in Experimental Example 32 were administered by a method similar to the method shown in Experimental Example 30 with varying doses of siRNA, and the knockdown effect was evaluated. The results are shown in FIG. 35, FIG. 36, and FIG. 37.

[3] = Particle size and surface potential of siRNA MENDs prepared by t-BuOH injecting method; assay type: physicochemical; settings: siRNA MEND, cationic lipid/cholesterol=70/30, DMG-PEG2000 3%
Protocol: as §1
The particle size and surface potential of various MENDs were measured according to the method described in [Experimental Example 2] and the results are shown in Table 6.

PDI [3]: 0.11 | size (nm) [3]: 123 nm | zeta (mV) [3]: −6.9 mV
SMILES: Cc1c(C)c2c(c(C)c1OC(=O)CCC(=O)OCCCCC1CCN(CCSSCCN3CCC(CCCCOC(=O)CCC(=O)Oc4c(C)c(C)c5c(c4C)CCC(C)(CCCC(C)CCCC(C)CCCC(C)C)O5)CC3)CC1)CCC(C)(CCCC(C)CCCC(C)CCCC(C)C)O2 (stereo not drawn) [TS-P4C4]
knockdown effect with chemically-modified siRNA (2′-F) (Factor VII (FVII) [1]; Lipid/siRNA ratio=2250): further enhanced the knockdown effect | knockdown effect, Lipid/siRNA ratio 2250 versus 250 (Factor VII (FVII) [1]; unmodified siRNA): knockdown effect was enhanced | FVII expression level (knockdown effect) (Factor VII (FVII) [2]): highest knockdown effect
